Measurements published in patent US20210251983A1, “METHODS OF TREATMENT WITH BUPRENORPHINE” (BioDelivery Sciences International, Inc., priority 2020, published 2021).
Entries after “also recorded” stand apart in the source; their conditions may differ.

Legend:
[1] = test system: pupil diameter; test: Pupillometry during VRH testing; format: in vivo, human; settings: time after dosing
[2] = Treatment-emergent adverse events
[3] = Pharmacokinetic assessment - abuse quotient (plasma Cmax, Tmax, AUC0-last, AQ); settings: for AUC(0-t) / Cmax / Tmax: both, human, plasma, oral
[4] = test system: respiratory drive; test: Ventilatory response to hypercapnia (VRH) test of respiratory drive, phase I placebo-controlled crossover trial

COc1ccc2c3c1O[C@H]1C(=O)CC[C@@]4(O)[C@@H](C2)N(C)CC[C@]314.Cl [IR Oxycodone, oxycodone hydrochloride]
initial onset of statistically significant miosis (relative to placebo) ([1]; oxycodone 30 mg): 0.5 h
initial onset of statistically significant miosis (relative to placebo) ([1]; oxycodone 60 mg): 0.5 h
treatment-emergent adverse events ([2]; all doses): produced some adverse events
treatment-emergent adverse events ([2]; oxycodone 60 mg): highest percentage of adverse events in all categories
Cmax dependence on dose ([3]; BBF 300-900 μg, IR oxycodone 30, 60 mg): increased proportionally with dose
AUC(0-t) ([3]; 30 mg): 216 ng·h/mL
Cmax ([3]; 30 mg): 65.8 ng/mL
Tmax ([3]; 30 mg): 1.2 h
AUC(0-t) ([3]; 60 mg): 435 ng·h/mL
Cmax ([3]; 60 mg): 132 ng/mL
Tmax ([3]; 60 mg): 1.2 h
effect on respiratory drive (Emax) relative to placebo ([4]; across all doses tested (BBF 300-900 μg; oxycodone 30, 60 mg), hydrochloride): dose-dependent decrease in respiratory drive; also recorded: decreased respiratory drive in a dose-dependent fashion
least square mean difference in Emax (maximum minute ventilation) versus placebo ([4]; oral oxycodone 30 mg, P=0.668): −828.5
least square mean difference in Emax (maximum minute ventilation) versus placebo ([4]; oral oxycodone 60 mg, P=0.008): −5188.6
minute ventilation relative to placebo ([4]; oxycodone 30 mg): significant (P<0.05) decrease at one hour post-dose
Peak Expiratory Flow Rate (PEFR) relative to placebo ([4]; oxycodone 30 mg, 1 hour post-dose): significant (P<0.05) decrease in PEFR at 1 hour post-dose
minute ventilation relative to placebo ([4]; oxycodone 60 mg): significant (P<0.05) decreases at 1 hour, 2 hour, and 4 hours post-dose
Peak Expiratory Flow Rate (PEFR) relative to placebo ([4]; oxycodone 60 mg, 30 minutes post-dose): significant (P<0.05) decrease at 30 minutes
Peak Expiratory Flow Rate (PEFR) relative to placebo ([4]; oxycodone 60 mg, 1 hour post-dose): significant (P<0.05) decrease in PEFR at 1 hour post-dose
oxygen saturation level, one subject (adverse event) ([4]; oxycodone 60 mg, approximately 1.5 hours after dosing): 86%
